US10092537B2, “Use for PAI-1 inhibitor” (RENASCIENCE CO., LTD., priority 2013, dated 2018)

Assays:
Her2-A20 cell = Her2-A20 cell subcutaneous tumor, Herceptin and compound c (Experimental Example 19); format: in vivo, BALB/c-nude mice; settings: Herceptin 20 mg/kg i.p. (2 doses) + compound c 10 mg/kg/day oral; 15 days after administration
Protocol: At first, A20 cell line (mouse B lymphoma) was transfected with human Her2 cDNA using MIGR1 vector to prepare transformed cells (hereinafter, “Her2-A20 cell”). The Her2-A20 cells (5×10^6) were subcutaneously inoculated into BALB/c-nude mice. […] Compound c or physiological saline was administered once a day, 5 doses in total (day 0 to day 4). […] Compound c or physiological saline was administered once a day, 7 doses in total (day 7 to day 13).

human PAI-1 = human PAI-1 (Homo sapiens, UniProt P05121); experiment: Measurement of PAI-1 inhibitory activity of compound group 1 (t-PA, Spectrozyme t-PA chromogenic substrate); settings: read-out: PAI-1 activity %
Protocol: Subsequently, human-derived tissue plasminogen activator (t-PA) (manufactured by American Diagnostica, Inc. (USA); the same applies hereinafter) adjusted to 0.05 pmol/μL was added thereto, and the mixture was further incubated at 37° C. for 60 minutes. Then, 0.25 mM of Spectrozyme t-PA synthetic substrate (manufactured by American Diagnostica, Inc. (USA); the same applies hereinafter), which is a chromogenic substrate, was added. The final mixture contained 50 mM Tris-HCl (pH 8), 150 mM NaCl, 1% DMSO, 0.1% PEG-6000, 0.2 mM CHAPS, 5 nM PAI-1, 2 nM t-PA, 0.2 mM Spectrozyme t-PA synthetic substrate, and each compound (10 μM or 2.5 μM).
Free radical p-nitroaniline removed from the chromogenic substrate (Spectrozyme t-PA) by t-PA action was measured using a spectrophotometer at an absorbance of 405 nm at 20-minute intervals, for 120 minutes.

[1] = 2-week repeated-dose toxicity test using rat (Experimental Example 6); format: in vivo, Sprague-Dawley rats; settings: 200, 600 and 2,000 mg/kg/day oral, repeatedly for 2 weeks; male and female rats
Protocol: Compound a was orally administered in 0 (0.5 w/v % carmellose sodium solution), 200, 600 and 2,000 mg/kg/day dosages to a male rat group and a female rat group each containing 5 Sprague-Dawley rats (Crl:CD(SD), 6-week old at the onset of administration) repeatedly for 2 weeks, and a toxicity test was conducted.

hematopoietic stem cells = experiment: Fibrinolytic pathway activation and bone-marrow regeneration after lethal radiation (9Gy) and bone-marrow transplantation, compound a versus recombinant tPA (Experimental Example 7)
Protocol: Within 4 hours, 1.0×10^6 bone-marrow mononucleic cells (BM MNC) were intravenously inoculated into retro-orbital plexus. Concurrently with transplantation, compound a (dosage 100 mg/kg) or recombinant tPA (dosage 100 mg/kg, Eisai Co., Ltd) were administered as a test compound via oral gavage, and the test compound was orally administered for 5 consecutive days (administered group). As a control test, instead of the test compound, physiological saline (vehicle) used for dissolving compound a was orally administered in the same manner (control group).
Blood was collected 2 and 7 days after bone-marrow transplantation, and the active PAI-1 level (ng/mL), active tissue-type plasminogen activator (active tPA), plasmin level (ng/mL), cKit ligand, and total MMP-9 (Matrix metalloprotein-9) in the plasma were measured.

[2] = 2 and 7 days after transplantation, among control, tPA and compound a groups
[3] = tPA group compared with control group, compound a group compared with tPA group

Sequence of human PAI-1 (P05121 24-402): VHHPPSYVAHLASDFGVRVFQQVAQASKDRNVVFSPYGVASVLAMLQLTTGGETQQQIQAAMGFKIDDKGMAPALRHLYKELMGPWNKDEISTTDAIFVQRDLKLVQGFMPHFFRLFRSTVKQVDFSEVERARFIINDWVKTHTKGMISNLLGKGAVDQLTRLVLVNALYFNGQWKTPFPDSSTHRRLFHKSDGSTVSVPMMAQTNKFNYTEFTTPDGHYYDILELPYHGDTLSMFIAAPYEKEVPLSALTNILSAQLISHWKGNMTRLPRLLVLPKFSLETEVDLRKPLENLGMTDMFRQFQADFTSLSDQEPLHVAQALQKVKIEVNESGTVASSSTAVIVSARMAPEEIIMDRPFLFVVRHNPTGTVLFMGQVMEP

| Structure (SMILES) | tumor volume versus other groups (Her2-A20 cell) | activity at 2.5 µM (human PAI-1) [%] | activity at 10 µM (human PAI-1) [%] | change in general state, weight, food intake, urine test, hematological test, blood chemical test, pathological test [1] | level of cKitL in plasma (hematopoietic stem cells; [2]) | level of plasmin in plasma (hematopoietic stem cells; [2]) | level of total MMP-9 in plasma (hematopoietic stem cells; [2]) | level of active tPA in plasma (hematopoietic stem cells; 7 days after transplantation, among control, tPA and compound a groups) | expression of active PAI-1 in the plasma (hematopoietic stem cells; compound a or recombinant tPA 100 mg/kg, 5 consecutive days, 2 and 7 days after bone-marrow transplantation) | survival rate on day 28 from bone-marrow transplantation (hematopoietic stem cells; lethal radiation 9Gy, 100 mg/kg, 5 consecutive days, n=15, control group 20%) [%] | platelet count in the peripheral blood (hematopoietic stem cells; [3]) | white blood cell count in the peripheral blood (hematopoietic stem cells; [3]) |
| --- | --- | --- | --- | --- | --- | --- | --- | --- | --- | --- | --- | --- |
| O=C(Nc1ccc(Cl)cc1C(=O)O)c1cccc(-c2ccccc2)c1 [Example 4, 2-[(biphenyl-3-ylcarbonyl)amino]-5-chlorobenzoic acid] | significantly smaller | 62.1 | 0.6 | – | – | – | – | – | – | – | – | – |
| O=C(COCC(=O)N1CCN(C(c2ccccc2)c2ccccc2)CC1)Nc1ccc(Cl)cc1C(=O)[O-].[Na+] [Example 30 (compound group 2), 2-(2-(2-(4-benzhydrylpiperazin-1-yl)-2-oxoethoxy)acetamido)-5-chlorobenzoic acid sodium salt] | – | – | – | no obvious change | highest level | highest level | highest level | highest level | did not exhibit an expression of active PAI-1 | 70 | significantly increased | significantly increased |
